In US20180209956A1, “HTS Assay for Identifying Small Molecule Inhibitors of RAD52 and Uses of Identified Small Molecule Inhibitors for Treatment and Prevention of BRCA-Deficient Malignancies” (University of Iowa Research Foundation, priority 2015, published 2018):

How the values were obtained:
RAD52-dsDNA interaction = biological target: T1, RAD52-dsDNA interaction (Homo sapiens, UniProt P43351); assay: FRET-based RAD52-dsDNA binding assay; conditions: 1 nM dsDNA, 10 nM RAD52
T1 construct: made in house
T1 sequence (P43351 1-418): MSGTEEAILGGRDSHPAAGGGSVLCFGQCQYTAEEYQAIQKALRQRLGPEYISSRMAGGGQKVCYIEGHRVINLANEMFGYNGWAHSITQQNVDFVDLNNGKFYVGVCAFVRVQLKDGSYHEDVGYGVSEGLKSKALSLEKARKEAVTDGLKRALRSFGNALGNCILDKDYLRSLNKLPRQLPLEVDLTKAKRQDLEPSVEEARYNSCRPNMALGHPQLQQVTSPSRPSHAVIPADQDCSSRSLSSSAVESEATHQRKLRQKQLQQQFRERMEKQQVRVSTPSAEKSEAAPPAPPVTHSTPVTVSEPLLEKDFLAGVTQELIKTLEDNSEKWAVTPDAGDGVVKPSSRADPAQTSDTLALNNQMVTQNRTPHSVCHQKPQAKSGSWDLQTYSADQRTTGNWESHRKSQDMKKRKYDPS
From the text: These assays utilize two complementary single stranded 28-nucleotide-long substrates, which contain either Cy3 (T-28) or Cy5 (P-28) incorporated into the middle of the respective DNA strand. When the substrates are annealed by RAD52, the Cy3 and Cy5 dyes are separated by 3 base pairs and yield a high FRET signal (FIG. 2 Supplement 2). […] The annealing reactions were initiated by mixing two half reactions and observing the change in FRET over time in the presence of varying concentrations of small molecules. An increasing FRET value over time indicates formation of the dsDNA duplex which brings the two dyes in close proximity (FIG. 2 Supplement 2). Fitting the annealing data to a double exponential allowed us to calculate and compare the final extent of annealing at varying concentrations of each compound compared to RAD52 alone. We plotted the final extent of annealing vs the concentration of the compound and calculated an IC50 of annealing inhibition.
where FRET0 is the initial FRET value of RAD52-ssDNA complex in the absence of the compound and FRETmin is the FRET value at complete inhibition. FRET values were calculated as an average of three or more independent annealing reactions plotted against the concentration of the compound. […]

[1] = biological target: T2, interaction between RAD52 and RPA proteins (Homo sapiens, UniProt P43351); assay: Ni-NTA pull-down of RAD52 and RPA; format: binding; conditions: 3 μM RAD52, 3 μM RPA, 3 μM compound
T2 construct: made in house

RAD52 = biological target: T3, RAD52 (Homo sapiens, UniProt P43351); assay: WaterLOGSY NMR analysis of compound binding to RAD52; set-up: made in house; conditions: 20 or 40 μM compound, 3.3 μM RAD52
T3 sequence (P43351 1-418): T1 sequence (P43351 1-418)
Procedure: In WaterLOGSY spectrum, if a compound binds to a protein, the compound will receive negative nuclear Overhauser effects (NOEs) due to the slow tumbling of the protein-compound complex, leading to a positive WaterLOGSY peak.
WaterLOGSY NMR analysis of the compound binding to RAD52 and RPA proteins: Compound binding to RAD52 and RPA proteins was analyzed using water-ligand observation with gradient spectroscopy (WaterLOGSY) NMR experiments (Dalvit et al., 2001, Dalvit et al., 2000). The WaterLOGSY spectra of compounds in the presence of RAD52 or RPA were acquired using a water NOE mixing time of 1 s and a T2 relaxation filter of 50 ms just before data acquisition to suppress the broad signals derived from protein. The protein buffer used in the experiments contains 10 mM Tris-d11, 75 mM KCl, 0.25 mM EDTA, pH 7.5, and 10% D20. All NMR data were acquired on a Bruker Avance II 800 MHz NMR spectrometer equipped with a sensitive cryoprobe and recorded at 25° C. The ^1H chemical shifts were referenced to 2,2-dimethyl-2-silapentane-5-sulfonate (DSS). NMR spectra were processed using NMR Pipe (Delaglio et al., 1995) and analysed using NMR View (Johnson and Blevins, 1994).

GM01604 cells [2] = assay: LIVE/DEAD cell viability assay; format: cell-based, human; conditions: for Dead cells: MUS81-depleted cells
Procedure: Cell Viability Live/Dead Assays: GM01604 cells were transfected with siRNAs directed against GFP (Ctrl), or against MUS81 (Qiagen), BRCA2 (Sigma-Aldrich), and RAD52 (Qiagen) 48 hours prior to addition of 1 μM ‘1’. Where indicated, the conditions of pathological replication were induced by treating cells with 2 mM HU and 300 nM UCN01 for 6 h or by a 18 hours treatment with 2 mM HU, in the presence or absence of ‘1’. Viability was evaluated by the LIVE/DEAD assay (Sigma-Aldrich) according to the manufacturer's instructions. Cell number was counted in randomly chosen fields and expressed as percent of dead cells (number of red nuclear stained cells divided by the total cell number) corrected for the cell loss observed in the population. For each time point, at least 200 cells were counted.

GM01604 cells [3] = assay: Anaphase bridges after aphidicolin (MUS81 activity); format: cell-based, human; conditions: aphidicolin 24 h, increasing concentration of compound
Procedure: Forty eight hours after transfection the fibroblasts were lysed and analysed by WB with the indicated antibodies. b) Forty eight hours after transfection, GM01604 cells were exposed to […] aphidicolin (APH) for 24 h in the presence (grey bars) or absence (white bars) of increasing concentration of ‘1’ added in the last 3 h before aphidicolin treatment. Results are presented as mean±SEM from two independent replicates. c) The presence of anaphase bridges, as shown in the representative images, was scored in DAPI-stained cells. The white bars indicate 10 μm.

T2 sequence (P27694 whole entry partner, one chain of several): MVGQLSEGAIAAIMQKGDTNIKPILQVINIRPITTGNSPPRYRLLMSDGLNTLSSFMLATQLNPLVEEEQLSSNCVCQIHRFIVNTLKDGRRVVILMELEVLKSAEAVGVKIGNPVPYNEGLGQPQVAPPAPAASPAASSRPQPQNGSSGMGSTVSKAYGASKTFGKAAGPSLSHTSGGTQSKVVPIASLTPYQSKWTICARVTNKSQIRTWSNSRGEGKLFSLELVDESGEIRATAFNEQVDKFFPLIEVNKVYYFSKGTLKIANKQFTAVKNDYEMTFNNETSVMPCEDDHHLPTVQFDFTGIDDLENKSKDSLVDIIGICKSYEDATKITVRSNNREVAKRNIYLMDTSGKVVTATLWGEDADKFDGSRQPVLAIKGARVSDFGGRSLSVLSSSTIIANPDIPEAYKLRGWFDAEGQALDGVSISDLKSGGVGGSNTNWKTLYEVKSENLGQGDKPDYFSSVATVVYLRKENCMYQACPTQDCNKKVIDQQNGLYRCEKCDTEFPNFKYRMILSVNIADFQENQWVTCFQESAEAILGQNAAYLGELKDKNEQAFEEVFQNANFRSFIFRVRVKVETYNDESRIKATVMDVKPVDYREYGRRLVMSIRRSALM
T2 sequence (P15927 whole entry partner, one chain of several): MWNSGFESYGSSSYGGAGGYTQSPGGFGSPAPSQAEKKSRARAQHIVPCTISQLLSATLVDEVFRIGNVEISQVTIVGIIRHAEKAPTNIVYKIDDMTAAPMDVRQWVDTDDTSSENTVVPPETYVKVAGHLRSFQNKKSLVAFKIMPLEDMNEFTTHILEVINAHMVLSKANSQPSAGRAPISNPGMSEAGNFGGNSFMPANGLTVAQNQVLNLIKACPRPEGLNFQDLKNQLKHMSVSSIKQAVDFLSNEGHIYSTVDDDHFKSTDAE
T2 sequence (P35244 whole entry partner, one chain of several): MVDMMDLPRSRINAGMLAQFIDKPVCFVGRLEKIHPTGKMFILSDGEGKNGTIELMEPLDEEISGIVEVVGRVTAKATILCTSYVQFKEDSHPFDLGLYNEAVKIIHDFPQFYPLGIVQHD

| Effect on the RAD52-dsDNA interaction (RAD52-dsDNA interaction) | Effect on the interaction between RAD52 and RPA proteins [1] | Binding to RAD52 by WaterLOGSY (RAD52) | Structure (SMILES) | Cell death after prolonged replication arrest (GM01604 cells [2]; BRCA2-depleted cells, HU 18 h) | Cell death (GM01604 cells [2]; BRCA2-depleted cells, after replication stress, 1 μM compound) | Cell death after HU+UCN01 (GM01604 cells [2]; Ctrl siRNA cells, 1 μM compound) | Dead cells (GM01604 cells [2]; checkpoint-deficient, HU treated, 1 μM compound) | Dead cells (GM01604 cells [2]; untreated, 1 μM compound) | Effect on MUS81 activity (anaphase bridges) (GM01604 cells [3]) |
| --- | --- | --- | --- | --- | --- | --- | --- | --- | --- |
| able to displace dsDNA | no effect | positive WaterLOGSY peaks | O=C(O[C@@H]1Cc2c(O)cc(O)cc2O[C@@H]1c1cc(O)c(O)c(O)c1)c1cc(O)c(O)c(O)c1 [Compound 6, Epigallocatechin-3-monogallate] |  |  |  |  |  |  |
|  |  |  | Oc1cc(O)c2c(c1)O[C@H](c1cc(O)c(O)c(O)c1)[C@H](O)C2 [Compound ‘1’, (−)-Epigallocatechin] | substantial increase in cell death | ~80% | potentiated the effect of the combined HU+UCN01 treatment | ~60% | approximately 40% | does not affect MUS81 activity |
